In BindingDB's records for doi:10.1002/cbic.201200272 (Yonsei University, 2012):

Molecular target: T1, Pancreatic alpha-amylase (Sus scrofa, UniProt P00690)
T1 sequence (P00690 whole entry): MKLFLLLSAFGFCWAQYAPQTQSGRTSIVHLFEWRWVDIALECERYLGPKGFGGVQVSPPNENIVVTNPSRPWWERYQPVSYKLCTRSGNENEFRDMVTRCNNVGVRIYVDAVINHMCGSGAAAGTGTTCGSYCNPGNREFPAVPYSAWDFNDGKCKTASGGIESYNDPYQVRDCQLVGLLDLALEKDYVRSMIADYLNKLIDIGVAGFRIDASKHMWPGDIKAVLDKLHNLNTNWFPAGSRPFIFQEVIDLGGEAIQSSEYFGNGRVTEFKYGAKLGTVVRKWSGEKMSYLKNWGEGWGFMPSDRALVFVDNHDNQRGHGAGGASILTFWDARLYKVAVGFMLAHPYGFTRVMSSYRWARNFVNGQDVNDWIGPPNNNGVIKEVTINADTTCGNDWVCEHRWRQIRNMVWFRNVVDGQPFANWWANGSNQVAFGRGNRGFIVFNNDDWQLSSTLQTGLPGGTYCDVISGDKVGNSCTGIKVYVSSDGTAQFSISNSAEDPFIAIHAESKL
Assay: Enzymatic Activity Assay
Settings: pH 7; 37 °C
Excerpt: To test whether GCTs share a common binding pocket on PPA with acarbose, we performed an experiment according to the method of Yonetani and Theorell.

| SMILES | IC50 | Ki |
| --- | --- | --- |
| CO[C@@H]1O[C@H](Cn2cc(-c3ccccc3)nn2)[C@@H]2OC(C)(C)OC12 (some centres not stated) [GPESB01] | 361 µM | 780 µM |
| CO[C@@H]1O[C@H](Cn2cc(C3=CCCCC3)nn2)[C@@H]2OC(C)(C)OC12 (some centres not stated) [GPESB02] | 150 µM | 342 µM |
| CO[C@@H]1O[C@H](Cn2cc(COC(C)=O)nn2)[C@@H]2OC(C)(C)OC12 (some centres not stated) [GPESB11] | 125 µM | 234 µM |
| OC1[C@H](O)O[C@H](Cn2cc(-c3ccccc3)nn2)[C@@H]1O (some centres not stated) [GPESB14] | 88.9 µM | 204 µM |

Other lines, results leading:

| IC50 | Ki | SMILES |
| --- | --- | --- |
| 356 µM | 1010 µM | CO[C@@H]1O[C@H](Cn2cc(C3(O)CCCCC3)nn2)[C@@H]2OC(C)(C)OC12 (some centres not stated) [GPESB07] |
| 35.8 µM | 33.6 µM | OC1[C@H](O)O[C@H](Cn2cc(C3=CCCCC3)nn2)[C@@H]1O (some centres not stated) [GPESB15] |
